This note sets out measurements from patent US7858621B2 (Amorepacific Corporation, priority 2006, dated 2010).

T1 sequence (O35433 whole entry): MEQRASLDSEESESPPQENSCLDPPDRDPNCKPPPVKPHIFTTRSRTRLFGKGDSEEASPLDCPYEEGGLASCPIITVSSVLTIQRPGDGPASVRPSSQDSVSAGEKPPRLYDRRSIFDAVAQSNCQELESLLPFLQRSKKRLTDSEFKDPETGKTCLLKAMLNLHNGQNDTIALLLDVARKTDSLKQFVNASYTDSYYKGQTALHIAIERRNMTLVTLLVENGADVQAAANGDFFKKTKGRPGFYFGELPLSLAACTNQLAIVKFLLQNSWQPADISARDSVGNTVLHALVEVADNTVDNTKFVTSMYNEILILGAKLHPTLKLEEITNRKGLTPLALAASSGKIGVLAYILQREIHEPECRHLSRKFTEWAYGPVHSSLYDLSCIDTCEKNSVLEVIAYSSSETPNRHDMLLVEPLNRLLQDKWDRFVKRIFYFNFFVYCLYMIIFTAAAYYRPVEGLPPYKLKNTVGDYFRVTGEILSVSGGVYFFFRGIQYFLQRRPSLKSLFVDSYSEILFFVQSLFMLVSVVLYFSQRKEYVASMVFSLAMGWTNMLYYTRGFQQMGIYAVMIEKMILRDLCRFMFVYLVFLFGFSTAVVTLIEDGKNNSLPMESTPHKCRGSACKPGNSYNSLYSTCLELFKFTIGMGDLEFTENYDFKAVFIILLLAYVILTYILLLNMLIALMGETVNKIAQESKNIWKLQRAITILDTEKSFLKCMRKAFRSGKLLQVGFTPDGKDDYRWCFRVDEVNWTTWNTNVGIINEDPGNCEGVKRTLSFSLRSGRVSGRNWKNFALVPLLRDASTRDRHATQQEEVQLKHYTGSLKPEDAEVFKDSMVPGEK

This experiment addresses T1, vanilloid receptor (Rattus norvegicus, UniProt O35433).
T1 construct: DRG nerve cells from the primary culture of 2 days were equilibrated; endogenous in cells; host or cells: primary culture of dorsal root ganglion neurons from neonatal SD rats
Description: 45Ca influx test in cultured neonatal rat DRG neurons, inhibition of capsaicin response. The settings on record: neonatal rat DRG neurons, capsaicin 0.5 μM, 45Ca influx; read-out: Antagonist Calcium Uptake Test (IC50). Format: cell-based. How it is done: 1) Separation of Spinal Dorsal Root Ganglia (DRG) in Newborn Rats and Primary Culture Thereof
Neonatal (2-3 day old or younger than 2-3 day old) SD rats were put in ice for 5 minutes to anesthetize and disinfected with 70% ethanol. […] The DRG were incubated sequentially at 37° C. for 30 mins in 200 U/ml collagenase and 2.5 mg/ml trypsin, separately. The ganglia were washed twice with DME/F12 medium supplemented with 10% horse serum, triturated through a fire-polished Pasteur pipette, filtered through Nitex 80 membrane to obtain single cell suspension and the suspension was washed once more. This was subjected to centrifugation, then resuspended in cell culture medium at certain level of cell density. As the cell culture medium, DME/F12 medium supplemented with 10% horse serum was diluted with identical medium conditioned by C6 glioma cells 2 days on a confluent monolayer (1:1), and NGF (Nerve Growth Factor) was added to adjust 200 ng/ml as final concentration. After the cells were grown 2 days in medium where cytosine arabinoside (Ara-C, 100 μM) was added to kill dividing nonneuronal cells, medium was changed to one without Ara-C. The resuspended cells were plated at a density of 1500-2000 neurons/well onto Terasaki plates previously coated with 10 μg/ml poly-D-ornithine.
2) ^45Ca Influx Experiments
DRG nerve cells from the primary culture of 2 days were equilibrated by washing 4 times with HEPES (10 mM, pH 7.4)-buffered Ca^2+, Mg^2+-free HBSS (H-HBSS). The solution in each well was removed from the individual well. Medium containing the test compound plus capsaicin (final concentration 0.5 μM) and ^45Ca (final concentration 10 μCi/ml) in H-HBSS was added to each well and incubated at room temperature for 10 mins. Terasaki plates were washed five times with H-HBSS and dried at room temperature. To each well, 0.3% SDS (10 μl) was added to elute ^45Ca. After the addition of scintillation cocktail of into each well, the amount of ^45Ca influx into neuron was measured by counting radioactivity.
Regarding “2-(2-piperid-1-yl-6-chloro-pyridinyl-3-yloxy)-N-(3-fluoro-4-methanesulfonylamino-benzyl)-acetamide [Example 13]”, the IC50 was 3.5 µM.
As to `C#Cc1cc(CNC(=O)/C=C/c2ccc(C(F)(F)F)nc2N2CCC[C@H]2CO)cc(F)c1NS(C)(=O)=O` (stereo in doubt) [Example 83, N-(3-Ethynyl-5-fluoro-4-methansulfonylamino-benzyl)-3-[2-(2-hydroxymethyl-pyrrolidin-1-yl)-6-trifluoromethyl-pyridin-3-yl]-acrylamide], the IC50 was 2.1 µM.
As for `C#Cc1cc(CNC(=O)/C=C/c2ccc(C(C)(C)C)nc2)cc(F)c1NS(C)(=O)=O` [Example 3, 3-(6-tert-Butyl-pyridin-3-yl)-N-(3-ethynyl-5-fluoro-4-methanesulfonylamino-benzyl)-acrylamide], the IC50 amounted to 0.52 µM.
As to `CS(=O)(=O)Nc1ccc(CNC(=O)/C=C/c2ccc(C(F)(F)F)nc2N2CCOCC2)cc1F` [Example 5, N-(3-Fluoro-4-methanesulfonylamino-benzyl)-3-(2-morpholin-4-yl-6-trifluoromethyl-pyridin-3-yl)-acrylamide], the IC50 was 1.5 µM.
Consider `C=Cc1cc(CNC(=O)/C=C/c2ccc(C(F)(F)F)nc2N2CCOCC2)ccc1NS(C)(=O)=O` [Example 6, N-(4-Methanesulfonylamino-3-vinyl-benzyl)-3-(2-morpholin-4-yl-6-trifluoromethyl-pyridin-3-yl)-acrylamide], for which the IC50 came out at 0.3 µM.
`Cc1cc(CNC(=O)/C=C/c2ccc(C(F)(F)F)nc2N2CCOCC2)cc(F)c1NS(C)(=O)=O` [Example 8, N-(3-Fluoro-4-methanesulfonylamino-5-methyl-benzyl)-3-(2-morpholin-4-yl-6-trifluoromethyl-pyridin-3-yl)-acrylamide]: the IC50 turned out to be 0.42 µM.
Consider `C=Cc1cc(CNC(=O)/C=C/c2ccc(C(C)(C)C)nc2)cc(F)c1NS(C)(=O)=O` [Example 10, 3-(6-tert-Butyl-pyridin-3-yl)-N-(3-fluoro-4-methanesulfonylamino-5-vinyl-benzyl)-acrylamide], for which the half-inhibitory concentration (IC50) worked out at 0.28 µM.
The figure for `C#Cc1cc(CNC(=O)/C=C/c2ccc(C(C)(C)C)nc2OC)cc(F)c1NS(C)(=O)=O` [Example 11, 3-(6-tert-Butyl-2-methoxy-pyridin-3-yl)-N-(3-ethynyl-5-fluoro-4-methanesulfonylamino-benzyl)-acrylamide] is 0.29 µM; for `C#Cc1cc(CNC(=O)/C=C/c2ccc(Cl)nc2)cc(F)c1NS(C)(=O)=O` [Example 14, 3-(6-Chloro-pyridin-3-yl)-N-(3-ethynyl-5-fluoro-4-methanesulfonylamino-benzyl)-acrylamide] it is greater than 10 µM; for `C#Cc1cc(CNC(=O)/C=C/c2ccc(Br)nc2)cc(F)c1NS(C)(=O)=O` [Example 15, 3-(6-Bromo-pyridin-3-yl)-N-(3-ethynyl-5-fluoro-4-methanesulfonylamino-benzyl)-acrylamide] it is 5.9 µM.
To `CC(C)(C)c1cc(C(F)(F)F)c(/C=C/C(=O)NCc2ccc(NS(C)(=O)=O)c(F)c2)cn1` [Example 17, 3-(6-tert-Butyl-4-trifluoromethyl-pyridin-3-yl)-N-(3-fluoro-4-methanesulfonylamino-benzyl)-acrylamide] belongs 0.57 µM; to `C#Cc1cc(CNC(=O)/C=C/c2cnc(C(C)(C)C)cc2C(F)(F)F)cc(F)c1NS(C)(=O)=O` [Example 18, 3-(6-tert-Butyl-4-trifluoromethyl-pyridin-3-yl)-N-(3-ethynyl-5-fluoro-4-methanesulfonylamino-benzyl)-acrylamide], 0.13 µM.
`CS(=O)(=O)Nc1ccc(CNC(=O)/C=C/c2ccc(N3CCCCC3)nc2)cc1F` [Example 19, N-(3-Fluoro-4-methanesulfonylamino-benzyl)-3-(6-piperid-1-yl-pyridinyl-3-yl)-acrylamide]: the IC50 was greater than 10 µM.
For `CS(=O)(=O)Nc1ccc(CNC(=O)/C=C/c2ccc(Br)nc2)cc1F` [Example 20, 3-(6-Bromo-pyridin-3-yl)-N-(3-fluoro-4-methanesulfonylamino-benzyl)-acrylamide], the concentration for half-maximal inhibition (IC50) was greater than 10 µM.
For the compound `CS(=O)(=O)Nc1c(F)cc(CNC(=O)/C=C/c2ccc(C(F)(F)F)nc2N2CCOCC2)cc1F` [Example 21, N-(3,5-Difluoro-4-methanesulfonylamino-benzyl)-3-(2-morpholin-4-yl-6-trifluoromethyl-pyridin-3-yl)-acrylamide], the concentration for half-maximal inhibition (IC50) turned out to be 1.1 µM.
To `C#Cc1cc(CNC(=O)/C=C/c2ccc(C(F)(F)F)nc2N2CCCCC2)cc(F)c1NS(C)(=O)=O` [Example 24, N-(3-Ethynyl-5-fluoro-4-methanesulfonylamino-benzyl)-3-(2-piperid-1-yl-6-trifluoromethyl-pyridinyl-3-yl)-acrylamide] belongs 0.34 µM; to `CS(=O)(=O)Nc1ccc(CNC(=O)/C=C/c2ccc(N3CCCC3)nc2)cc1F` [Example 25, N-(3-Fluoro-4-methanesulfonylamino-benzyl)-3-(6-pyrrolidin-1-yl-pyridin-3-yl)-acrylamide], greater than 10 µM; to `CS(=O)(=O)Nc1ccc(CNC(=O)/C=C/c2ccc(C(F)(F)F)nc2N2CCCCC2)cc1F` [Example 26, N-(3-Fluoro-4-methanesulfonylamino-benzyl)-3-(2-piperid-1-yl-6-trifluoromethyl-pyridinyl-3-yl)-acrylamide], 1.1 µM.
As for `CC(C)(C)c1ccc(OCC(=O)NCc2ccc(NS(C)(=O)=O)c(F)c2)cn1` [Example 29, 2-(6-tert-Butyl-pyridin-3-yloxy)-N-(3-fluoro-4-methanesulfonylamino-benzyl)-acetamide], the concentration for half-maximal inhibition (IC50) was greater than 10 µM.
Consider `CC(C)(C)c1ccc(OCC(=O)NCc2ccc(NS(C)(=O)=O)c(F)c2)c(Cl)n1` [Example 30, 2-(6-tert-Butyl-2-chloro-pyridin-3-yloxy)-N-(3-fluoro-4-methanesulfonylamino-benzyl)-acetamide], for which the IC50 is 3.8 µM.
The figure for `Cc1ccc(OCC(=O)NCc2ccc(NS(C)(=O)=O)c(F)c2)c(CO)n1` [Example 31, N-(3-Fluoro-4-methanesulfonylamino-benzyl)-2-(2-hydroxymethyl-6-methyl-pyridin-3-yloxy)-acetamide] is greater than 10 µM; for `CS(=O)(=O)Nc1ccc(CNC(=O)COc2ccc(C(F)(F)F)nc2)cc1F` [Example 32, N-(3-Fluoro-4-methanesulfonylamino-benzyl)-2-(6-trifluoromethyl-pyridin-3-yloxy)-acetamide] it is greater than 10 µM; for `C#Cc1cc(CNC(=O)COc2ccc(Cl)nc2)cc(F)c1NS(C)(=O)=O` [Example 35, 2-(6-Chloro-pyridin-3-yloxy)-N-(3-ethynyl-5-fluoro-4-methanesulfonylamino-benzyl)-acetamide] it is greater than 10 µM.
As for `CC(C)(C)c1ccc(/C=C/C(=O)NCc2ccc(NS(C)(=O)=O)c(F)c2)c(Br)n1` [Example 36, 3-(2-Bromo-6-tert-butyl-pyridin-3-yl)-N-(3-fluoro-4-methanesulfonylamino-benzyl)-acrylamide], the concentration for half-maximal inhibition (IC50) stood at 0.18 µM.
Consider `C#Cc1cc(CNC(=O)/C=C/c2ccc(C(C)(C)C)nc2Br)cc(F)c1NS(C)(=O)=O` [Example 37, 3-(2-Bromo-6-tert-butyl-pyridin-3-yl)-N-(3-ethynyl-5-fluoro-4-methanesulfonylamino-benzyl)-acrylamide], for which the IC50 turned out to be 0.059 µM.
Consider `C#Cc1cc(CNC(=O)/C=C/c2ccc(C(F)(F)F)nc2N(CC)CC)cc(F)c1NS(C)(=O)=O` [Example 38, 3-(2-Diethylamino-6-trifluoromethyl-pyridin-3-yl)-N-(3-ethynyl-5-fluoro-4-methanesulfonylamino-benzyl)-acrylamide], for which the IC50 was determined as 0.22 µM.
For the compound `CC(C)(C)c1ccc(/C=C/C(=O)NCc2cc(F)c(NS(C)(=O)=O)c(F)c2)cn1` [Example 39, 3-(6-tert-Butyl-pyridin-3-yl)-N-(3,5-difluoro-4-methanesulfonylamino-benzyl)-acrylamide], the IC50 stood at 1.6 µM.
Consider `C#Cc1cc(CNC(=O)/C=C/c2ccc(C(F)(F)F)nc2Cl)cc(F)c1NS(C)(=O)=O` [Example 40, 3-(2-Chloro-6-trifluoromethyl-pyridin-3-yl)-N-(3-ethynyl-5-fluoro-4-methanesulfonylamino-benzyl)-acrylamide], for which the IC50 came out at 0.98 µM.
In the case of `C#Cc1cc(CNC(=O)/C=C/c2cnc(OC)cc2C(F)(F)F)cc(F)c1NS(C)(=O)=O` [Example 41, N-(3-Ethynyl-5-fluoro-4-methanesulfonylaminobenzyl)-3-(6-methoxy-4-trifluoromethylpyridin-3-yl)acrylamide], the IC50 turned out to be 1.6 µM.
Regarding `COc1cc(C(F)(F)F)c(/C=C/C(=O)NCc2ccc(NS(C)(=O)=O)c(F)c2)cn1` [Example 43, N-(3-Fluoro-4-methanesulfonylaminobenzyl)-3-(6-methoxy-4-trifluoromethylpyridin-3-yl)acrylamide], the IC50 is 9.2 µM.

The IC50 is the concentration needed to halve the response being measured.
